Reference: patent US20170246204A1, “MEDICAMENT FOR TREATING A DISEASE RELATING TO A DYSFUNCTION OF THE DOPAMINERGIC SYNAPTIC TRANSMISSION” (L'Air Liquide, Société Anonyme pour l'Etude et …, priority 2014, published 2017)

Legend:
[1] = test system: dopaminergic neurons (TH+) of rat mesencephalon cultures; test: tritiated dopamine reuptake per TH+ dopaminergic neuron in mesencephalon cultures; type: cell-based; conditions: D14; memantine 10 μM; 75% Xe or 75% N2; p<0.05, n=9
Protocol: Cultures are prepared from mesencephalon of rat embryos, taking from female Wistar rats, on day 15.5 of gestation.
The process for obtaining the mesencephalon cultures comprises the obtaining of a homogeneous cell suspension by mechanical dissociation, that is to say non-enzymatic dissociation, of the embryonic tissue, using Leibovitz's L15 medium (Sigma Aldrich).
Aliquots of this suspension are added to 48-well Nunc plates, which have been precoated with a thin layer of polyethyleneimine (1 mg/ml, borate buffer, pH 8.3) so as to allow the adhesion of neuronal cells (Toulorge et al., Faseb J, 2011).
The seeding density is between approximately 80 000 and 100 000 cells/cm^2.
The mesencephalon cultures are maintained in Minimum Essential culture Medium (MEM), containing 1 g/l of glucose, 2 mM of L-glutamine, 1 mM of sodium pyruvate, non-essential amino acids and a penicillin/streptomycin cocktail. For the first week of culture, this medium is supplemented with 10% of fetal calf serum and 10% of horse serum. Starting from the second week, the serum concentrations are reduced to 2% (Gao et al., J Neurosci, 2002).
Up until the moment when the effects of the gases of interest are evaluated, the cultures are placed in a conventional enclosure thermostated at 37° C., in which the CO2 is maintained at 5% by volume and wherein the atmosphere is saturated with water. […]

[2] = test system: dopaminergic neurons (TH+) of rat mesencephalon cultures; test: neurite length per TH+ dopaminergic neuron in mesencephalon cultures; type: cell-based; conditions: D14; memantine 10 μM; 75% Xe or 75% N2; p<0.05, n=9
Protocol: Cultures are prepared from mesencephalon of rat embryos, taking from female Wistar rats, on day 15.5 of gestation. The process for obtaining the mesencephalon cultures comprises the obtaining of a homogeneous cell suspension by mechanical dissociation, that is to say non-enzymatic dissociation, of the embryonic tissue, using Leibovitz's L15 medium (Sigma Aldrich). Aliquots of this suspension are added to 48-well Nunc plates, which have been precoated with a thin layer of polyethyleneimine (1 mg/ml, borate buffer, pH 8.3) so as to allow the adhesion of neuronal cells (Toulorge et al., Faseb J, 2011). The seeding density is between approximately 80 000 and 100 000 cells/cm^2. The mesencephalon cultures are maintained in Minimum Essential culture Medium (MEM), containing 1 g/l of glucose, 2 mM of L-glutamine, 1 mM of sodium pyruvate, non-essential amino acids and a penicillin/streptomycin cocktail. For the first week of culture, this medium is supplemented with 10% of fetal calf serum and 10% of horse serum. […] Up until the moment when the effects of the gases of interest are evaluated, the cultures are placed in a conventional enclosure thermostated at 37° C., in which the CO2 is maintained at 5% by volume and wherein the atmosphere is saturated with water. […] This parameter is evaluated with the same HCS Studio software.

Row | SMILES | dopamine reuptake per TH^+ neuron, effect compared with control cultures under 75% nitrogen (FIG. 1) [1] | neurite length per TH^+ neuron, effect compared with control cultures under 75% nitrogen (FIG. 2) [2]
1 | CC12CC3CC(C)(C1)CC(N)(C3)C2 [Memantine, memantine] | significantly greater | significantly greater
2 | [Xe] [Xenon, xenon] | significantly greater | significantly greater
